# Target: PKBα (Homo sapiens, UniProt P31749)
# Experiment: PKB kinase assay (P33-labeled ATP, peptide substrate, filter plate)
# Type: biochemical
# Details: PKBα enzyme (full length or kinase domain with pleckstrin domain deleted)
# From the text: The kinase assay for evaluating PKB activity comprises active PKB enzymes, a PKB specific substrate, and P^33-labeled ATP. […] The phosphorylated substrate was captured by a phosphocellulose membrane filter plate (MLLIPORE) and measured by a Wallac Microbeta liquid scintillation counter (Perkin Elmer).
# PKBα, sequence (P31749 118-480 limits assumed): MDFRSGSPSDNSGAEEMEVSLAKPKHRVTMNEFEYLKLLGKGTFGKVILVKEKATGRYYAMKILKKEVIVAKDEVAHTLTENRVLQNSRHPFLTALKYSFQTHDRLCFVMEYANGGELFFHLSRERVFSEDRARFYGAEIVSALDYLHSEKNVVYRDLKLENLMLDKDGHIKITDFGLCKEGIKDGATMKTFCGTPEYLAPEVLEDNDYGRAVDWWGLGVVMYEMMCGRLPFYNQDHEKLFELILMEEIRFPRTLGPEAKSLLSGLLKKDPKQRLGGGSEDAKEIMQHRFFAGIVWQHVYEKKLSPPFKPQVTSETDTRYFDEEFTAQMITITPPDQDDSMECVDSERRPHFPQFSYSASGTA
row,IC50 [nM],SMILES
1,< 50,"NC(CNc1ncc(-c2ccc3[nH]c(=O)oc3c2)s1)Cc1ccc(C(F)(F)F)cc1F (stereo not shown) [Example 178, 6-(2-(-2-amino-3-(2-fluoro-4-(trifluoromethyl)phenyl)propylamino)thiazol-5-yl)benzo[d]oxazol-2(3H)-one]"
2,50 to 1000,"N[C@H](CNc1ncc(-c2ccc3[nH]c(=O)oc3c2)s1)Cc1c[nH]c2ccccc12 [Example 39, 6-(2-((S)-2-amino-3-(1H-indol-3-yl)propylamino)thiazol-5-yl)benzo[d]oxazol-2(3H)-one]"
3,1000 to 10000,"CC1C(=O)Nc2ccc(-c3cnc(NC[C@@H](N)Cc4ccccc4)s3)cc21 (stereo partly drawn) [Example 70, 5-(2-((S)-2-amino-3-phenylpropylamino)thiazol-5-yl)-3-methylindolin-2-one]"
4,< 50,"N[C@H](CNc1ncc(-c2ccc3[nH]c(=O)oc3c2)s1)Cc1ccc(C(F)(F)F)cc1 [Example 40, 6-(2-((S)-2-amino-3-(4-(trifluoromethyl)phenyl)propylamino)thiazol-5-yl)benzo[d]oxazol-2(3H)-one]"
5,< 50,"N[C@H](CNc1ncc(-c2ccc3cnccc3c2)s1)Cc1ccc(Cl)c(F)c1 [Example 85, N—((S)-2-Amino-3-(4-chloro-3-fluorophenyl)propyl)-5-(isoquinolin-6-yl)thiazol-2-amine]"

# The remaining lines, values behind:
row,SMILES,IC50 [nM]
1,"CC#Cc1nc(NC[C@@H](N)Cc2ccc(C(F)(F)F)cc2)sc1-c1ccc2c(c1)CC(=O)N2 [Example 152, 5-(2-((S)-2-amino-3-(4-(trifluoromethyl)phenyl)propylamino)-4-(prop-1-ynyl)thiazol-5-yl)indolin-2-one]",< 50
2,"N[C@H](CNc1nc(CO)c(-c2ccc3[nH]c(=O)oc3c2)s1)Cc1ccc(C(F)(F)F)cc1 [Example 125, 6-(2-((S)-2-Amino-3-(4-(trifluoromethyl)phenyl)propylamino)-4-(hydroxymethyl)thiazol-5-yl)benzo[d]oxazol-2(3H)-one]",< 50
3,"N[C@H](CNc1ncc(-c2ccc3[nH]c(=O)oc3c2)s1)Cc1ccc(C(F)(F)F)c(F)c1 [Example 183, 6-(2-((S)-2-amino-3-(3-fluoro-4-(trifluoromethyl)phenyl)propylamino)thiazol-5-yl)benzo[d]oxazol-2(3H)-one]",< 50
4,"C[C@@H](c1ccc(C(F)(F)F)nc1)[C@H](N)CNc1ncc(-c2ccc3c(c2)CC(=O)N3)s1 [Example 233, 5-(2-((2S,3S)-2-amino-3-(6-(trifluoromethyl)pyridin-3-yl)butylamino)thiazol-5-yl)indolin-2-one]",< 50
5,"N[C@H](CNc1ncc(-c2ccc3cnccc3c2)s1)Cc1ccc(C(F)(F)F)cc1 [Example 6, N—((S)-2-amino-3-(4-(trifluoromethyl)phenyl)propyl)-5-(isoquinolin-6-yl)thiazol-2-amine]",< 50
6,"N[C@H](CNc1nc(C2CCCO2)c(-c2ccc3c(c2)CC(=O)N3)s1)Cc1ccc(Cl)cc1 (stereo partly drawn) [Example 197, 5-(2-((S)-2-Amino-3-(4-chlorophenyl)propylamino)-4-(tetrahydrofuran-2-yl)thiazol-5-yl)indolin-2-one]",1000 to 10000
7,"N[C@H](CNc1ncc(-c2ccc3c(c2)CC(=O)N3)s1)Cc1ccc(Cl)c(Cl)c1 [Example 114, 5-(2-((S)-2-Amino-3-(3,4-dichlorophenyl)propylamino)thiazol-5-yl)indolin-2-one]",< 50
8,"COCc1nc(NC[C@@H](N)Cc2ccc(C(F)(F)F)cc2)sc1-c1ccc2[nH]c(=O)n(C)c2c1 [Example 58, 6-(2-((S)-2-amino-3-(4-(trifluoromethyl)phenyl)propylamino)-4-(methoxymethyl)thiazol-5-yl)-1-methyl-1H-benzo[d]imidazol-2(3H)-one]",50 to 1000

# Reference: patent US8084479B2, “Thiazole compounds and methods of use” (Amgen Inc., priority 2006, dated 2011)
